Columns and labels:
ORYSA = test: Post-emergence herbicidal effect and crop plant compatibility, greenhouse pot test; assay type: in vivo, Oryza sativa; settings: 320 g/ha, one-leaf stage, rated visually after about 3 weeks vs untreated controls
Source text: (§1) • ALOMY: Alopecurus myosuroides SETVI: Setaria viridis • AVEFA: Avena fatua POLCO: Fallopia convolvulus • AMARE: Amaranthus retroflexus ECHCG: Echinochloa crus-galli • LOLRJ: Lolium rigidum STEME: Stellaria media • VERPE: Veronica persica MATIN: Tripleurospermum inodorum • DIGSA: Digitaria sanguinalis ABUTH: Abutylon threophrasti • TRZAS: Triticum aestivum VIOTR: Viola tricolor • BRSNW: Brassica napus ZEAMX: Zea mays • PHBPU: Ipomoea purpurea GLXMA: Glycine max • ORYSA: Oryza sativa HORMU: Hordeum murinum
(§2) Seeds of monocotyledonous and dicotyledonous weeds and crop plants are placed in sandy loam in plastic or organic planting pots, covered with soil and cultivated in a greenhouse under controlled growth conditions. 2 to 3 weeks after sowing, the trial plants are treated at the one-leaf stage. The compounds of the invention, formulated in the form of wettable powders (WP) or as emulsion concentrates (EC), are then sprayed onto the green parts of the plants as aqueous suspension or emulsion with addition of 0.5% additive at a water application rate of 600 l/ha (converted). After the test plants have been kept in the greenhouse under optimum growth conditions for about 3 weeks, the activity of the preparations is rated visually in comparison to untreated controls. For example, 100% activity=the plants have died, 0% activity=like control plants.
(§3) Tables 20a to 38c below show the effects/crop compatibilities of selected compounds of the general formula (I) on various harmful plants at an application rate corresponding to 20 to 320 g/ha, which were obtained by the trial procedure specified above.

ZEAMX = test: as above; assay type: in vivo, Zea mays; settings: 20 g/ha, one-leaf stage, rated visually after about 3 weeks vs untreated controls
Method in brief: (§4)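 Greenhouse pot test: weeds and crops sown in sandy loam, sprayed post-emergence at one-leaf stage (2–3 weeks after sowing) with WP or EC formulations plus 0.5% additive at 600 l/ha water, rates 20–320 g/ha. Visual rating about 3 weeks later versus untreated controls (100% = dead, 0% = as control).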

DIGSA = test: Post-emergence herbicidal effect, greenhouse pot test; assay type: in vivo, Digitaria sanguinalis; settings: Digitaria sanguinalis, 504 h, 320 g/ha, visual rating about 3 weeks after treatment, read-out: Post-emergence effect against DIGSA
Method in brief: as §4

ECHCG = test: as above; assay type: in vivo, Echinochloa crus-galli
Method in brief: as §4

ALOMY = test: as above; assay type: in vivo, Alopecurus myosuroides; settings: Alopecurus myosuroides, 504 h, 320 g/ha, visual rating about 3 weeks after treatment, read-out: Post-emergence effect against ALOMY
Method in brief: as §4

AMARE = test: as above; assay type: in vivo, Amaranthus retroflexus; settings: Amaranthus retroflexus, 504 h, 320 g/ha, visual rating about 3 weeks after treatment, read-out: Post-emergence effect against AMARE
Method in brief: as §4

AVEFA = test: as above; assay type: in vivo, Avena fatua; settings: Avena fatua, 504 h, 320 g/ha, visual rating about 3 weeks after treatment, read-out: Post-emergence effect against AVEFA
Method in brief: as §4

ABUTH = test: as above; assay type: in vivo, Abutilon theophrasti; settings: Abutilon theophrasti, 504 h, 320 g/ha, visual rating about 3 weeks after treatment, read-out: Post-emergence effect against ABUTH
Method in brief: as §4

SETVI = test: as above; assay type: in vivo, Setaria viridis; settings: 320 g/ha
Method in brief: as §4

TRZAS = test: Post-emergence herbicidal effect and crop plant compatibility, greenhouse pot test; assay type: in vivo, Triticum aestivum; settings: for Post-emergence effect against TRZAS: visual rating about 3 weeks after treatment, crop plant
Method in brief: as §4

LOLRI = test: Post-emergence herbicidal effect, greenhouse pot test; assay type: in vivo, Lolium rigidum; settings: Lolium rigidum, 504 h, 320 g/ha, read-out: Post-emergence effect against LOLRI in %
Method in brief: as §4

PHBPU = test: as above; assay type: in vivo, Ipomoea purpurea; settings: 320 g/ha
Method in brief: as §4

GLXMA = test: Post-emergence herbicidal effect and crop plant compatibility, greenhouse pot test; assay type: in vivo, Glycine max; settings: 20 g/ha, visual rating about 3 weeks after treatment, crop plant
Source text: as §1, §2, §3

COC(=O)C(OC)Oc1nn(-c2cnccn2)c(-c2ccc(F)nc2)c1Cl (stereo not drawn) [Example I-35]
Post-emergence effect at 320 g/ha against ORYSA in % (ORYSA): 10%
plant injury at 20 g/ha (ZEAMX; Zea mays, 504 h, read-out: Post-emergence effect at 20 g/ha against ZEAMX in %): 20%
pest or weed control at 320 g/ha (DIGSA): 80%
pest or weed control at 80 g/ha (ECHCG; Echinochloa crus-galli, 504 h, 80 g/ha, read-out: Post-emergence effect against ECHCG in %): 80%
pest or weed control at 320 g/ha (ECHCG; Echinochloa crus-galli, 504 h, 320 g/ha, read-out: Post-emergence effect against ECHCG in %): 90%
pest or weed control at 320 g/ha (ALOMY): 90%
pest or weed control at 320 g/ha (AMARE): 80%
pest or weed control at 320 g/ha (AVEFA): 80%
pest or weed control at 320 g/ha (ABUTH): 80%
pest or weed control at 320 g/ha (SETVI; Setaria viridis, 504 h, read-out: Post-emergence effect against SETVI in %): 80%
percent crop injury (phytotoxicity) to wheat, post-emergence at 20 g/ha (TRZAS; Triticum aestivum, 504 h, 20 g/ha, one-leaf stage, rated visually after about 3 weeks vs untreated controls, read-out: Post-emergence effect at 20 g/ha against TRZAS in %): 20%
pest or weed control at 320 g/ha (LOLRI): 80%

COC(Oc1nn(-c2cccc(C)c2F)c(-c2ccnc(F)c2)c1Br)C(=O)O (stereo not drawn) [Example I-92]
Post-emergence effect at 20 g/ha against ZEAMX in % (ZEAMX): 20%
Post-emergence effect against ECHCG in % (ECHCG; 80 g/ha): 80%
Post-emergence effect against ECHCG in % (ECHCG; 320 g/ha): 90%
Post-emergence effect against PHBPU in % (PHBPU): 80%
Post-emergence effect against GLXMA (GLXMA): 10%
Post-emergence effect against SETVI in % (SETVI): 80%
Post-emergence effect at 20 g/ha against TRZAS in % (TRZAS; 20 g/ha, one-leaf stage, rated visually after about 3 weeks vs untreated controls): 0%
Post-emergence effect against TRZAS (TRZAS; 80 g/ha): 10%
Post-emergence effect against TRZAS (TRZAS; 320 g/ha): 20%

Reference: patent US20240391862A1, “(1,4,5-TRISUBSTITUTED-1H-PYRAZOL-3-YL)OXY-2-ALKOXY ALKYL ACIDS AND THEIR DERIVATIVES, THEIR SALTS AND THEIR USE AS HERBICIDAL AGENTS” (Bayer AKtiengesellschaft, priority 2021, published 2024)
